# Reference: patent publication US10716753B2, “Compositions for pulmonary delivery of long-acting muscarinic antagonists or long-acting B2 adrenergic receptor agonists and associated methods and systems” (priority 2009, dated 2020)
# Legend:
# [1] = tested on: patients with mild to moderate COPD; assay: Multi-center crossover clinical trial, single administration: FEV1 spirometry; type: in vivo, human; conditions: all doses of Glycopyrrolate MDI; tiotropium 18 μg
# [2] = Aerosol performance by Next Generation Impactor, USP <601> (fine particle fraction, MMAD); type: physicochemical
# Protocol: A Next Generation Impactor (NGI) operated at a flow rate of 30 L/min was used for determination of particle size distribution. Sample canisters were seated into an actuator with two waste actuations and two additional waste priming actuations. Five actuations were collected in the NGI with a USP throat attached. The valve, actuator, throat, NGI cups, stages, and filter were rinsed with volumetrically dispensed solvent. The sample solutions were assayed using a drug specific chromatographic method. The fine particle fraction was defined using the sum of stages 3 through filter. […] Inhalers were seated and primed as described before. Two actuations were collected and assayed at beginning, middle and end of use.
# A Next Generation Impactor (NGI) operated at a flow rate of 30 L/min was used for determination of particle size distribution. Sample canisters were seated into an actuator with two waste actuations and two additional waste priming actuations. Five actuations were collected in the NGI with a USP throat attached. The valve, actuator, throat, NGI cups, stages, and filter were rinsed with volumetrically dispensed solvent. The sample solutions were assayed using a drug specific chromatographic method. The fine particle fraction was defined using the sum of stages 3 through filter. […] Two actuations were collected and assayed at beginning, middle and end of use.
# A Next Generation Impactor (NGI) operated at a flow rate of 30 L/min was used for determination of particle size distribution. Sample canisters were seated into an actuator with two waste actuations and two additional waste priming actuations. Five actuations were collected in the NGI with a USP throat attached. The valve, actuator, throat, NGI cups, stages, and filter were rinsed with volumetrically dispensed solvent. The sample solutions were assayed using a drug specific chromatographic method. The fine particle fraction was defined using the sum of stages 3 through filter.
# [3] = Visual observation of suspension quality / co-suspension in glass vials, incl. centrifugation; type: physicochemical; conditions: glass vials heated to 30° C.-35° C.
# Source text: Exemplary methods for assessing whether a co-suspension is present can include the following: If one particle type has a pycnometric density greater than the propellant and another particle type has a pycnometric density lower than the propellant, a visual observation of the creaming or sedimentation behavior can be employed to determine the presence of a co-suspension. The term “pycnometric density” refers to the density of a material that makes up a particle, excluding voids within the particle. In one embodiment, the materials can be formulated or transferred into a transparent vial, typically a glass vial, for visual observation. After initial agitation the vial is left undisturbed for a sufficient time for formation of a sediment or cream layer, typically 24 hours. If the sediment or cream layer is observed to be completely or mostly a uniform single layer, a co-suspension is present.
# Metered dose inhalers were prepared by weighing the target masses of micronized GP particles and suspending particles into fluorinated ethylene polymer (FEP) coated aluminum canisters (Presspart, Blackburn, UK) with 19 mL volume. […]
# [4] = co-suspension MDI: 2 mg SX, 60 mg suspending particles, 10 mL HFA 134a
structure (smiles),measurement,setting,value
C[N+]1(C)[C@@H]2C[C@@H](OC(=O)C(O)(c3cccs3)c3cccs3)C[C@H]1[C@@H]1O[C@@H]12 [tiotropium],Mean time to ≥10% improvement in FEV1,[1],approximately 3 hour
"C[N+]1(C)CCC(OC(=O)C(O)(c2ccccc2)C2CCCC2)C1.[Br-] (stereo not drawn) [glycopyrrolate, Pyrrolidinium, 3-((cyclopentylhydroxyphenylacetyl)oxy)-1,1-dimethyl-, bromide]",Fine particle fraction,"[2]; 24 μg per actuation co-suspension MDI, initially",59.3%
"OCc1cc(C(O)CNCCCCCCOCCCCc2ccccc2)ccc1O (stereo not drawn) [SX, 4-hydroxy-α1-[[[6-(4-phenylbutoxy)hexyl]amino]methyl]-1,3-benzenedimethanol, 1-hydroxy-2-naphthalenecarboxylate]",Fine particle fraction,[2]; [4],48%
same,MMAD,[2]; [4],3.7 μm
same,Visual observation of active agent particles formulated alone,[3],sedimented rapidly
same,Visual observation of co-suspension vial,[3],no SX crystals were visible at the bottom
